# Experimental data: patent publication US20170348269A1, “TREATMENT OF UREA CYCLE DISORDERS IN NEONATES AND INFANTS” (Horizon Therapeutics, LLC, priority 2016, published 2017)
# Where “and” joins values, the source holds several entries; their conditions need not be identical. Equal values may be shown once.
# Columns and labels:
# [1] = HPN-100-005 pharmacokinetics of HPN-100 and NaPBA in pediatric UCD patients; format: in vivo, human; settings: HPN-100-005 (N = 11)
# Text: The pharmacokinetics of the short term studies can be summarized as follows. Mean exposure levels of HPN-100 metabolites PBA, PAA, and PAGN after doses of HPN-100 and NaPBA with meals (TID) in pediatric (29 days to 17 years of age) UCD patients in HPN-100-005 and HPN-100-012 studies are summarized below. The mean exposure to PBA, the parent metabolite, and mean exposure to PAGN, the terminal metabolite, show no systematic variation across age groups, while PAA exposure tended to decrease with increasing age, a finding consistent with those from population PK modeling which indicate that the rate of clearance/metabolism of PAA varies directly with body size. While systemic metabolite exposure, assessed as peak plasma concentration (Cmax) or AUC, is generally similar for HPN-100 and NaPBA, the minimum concentration (Cmin-ss) was higher—and/or percent-fluctuation less—for plasma PAGN, a finding consistent with slower gastrointestinal absorption of PBA when administered orally as HPN-100.
# [2] = test system: ammonia in UCD patients; assay: Open label fixed-sequence switch-over comparison of RAVICTI to NaPBA, 4 patients aged 2 months to 2 years; format: in vivo, human
# Text: While the U.S. approval of RAVICTI® was based on its evaluation in 6 clinical trials involving over 100 adult and pediatric UCD patients aged 2 months old and above, only 7 patients aged 2 months to 2 years were enrolled in these studies. […] PAA exposure, also assessed as 24-hour area under the curve, was very similar. However, the number of patients in this age group studied at the time of RAVICTI's approval was small and considerable patient-to-patient variability was observed.
# [3] = test system: blood ammonia in pediatric patients with UCDs; assay: HPN-100-012 open-label fixed sequence switch-over study, blood ammonia control; format: in vivo, human
# Text: HPN-100-012, an open-label, fixed sequence, switch-over study of the safety, PK and efficacy of HPN-100 compared to NaPBA in patients with UCDs, with a 12-month safety extension part. […] After review of all the safety data by the DSMB, 8 additional subjects were enrolled in the study after the switch-over phase was completed. The primary efficacy endpoint was the 24-hour AUC (area under the curve) for blood ammonia on Day 1 compared with Day 10.
# [4] = test system: venous ammonia in pediatric patients with UCDs; assay: Studies 4/4E and 5, uncontrolled open-label studies in children under 2 years of age; format: in vivo, human
# Method: Uncontrolled, open-label studies were conducted to assess monthly ammonia control and hyperammonemic crisis of RAVICTI® in pediatric patients with UCDs 2 months to less than 2 years of age (Study 4/4E, Study 5, and Study 6). Patients in Study 5 previously participated in Study 4/4E. A total of 17 pediatric patients with UCDs aged 2 months to less than 2 years participated in the studies.
# A total of 7 patients with UCDs aged 2 months to less than 2 years participated in Studies 4/4E and 5. In these studies, there were 7, 6, 6, 6 and 3 pediatric patients who completed 1, 6, 9, 12 and 18 months, respectively (mean and median exposure of 15 and 17 months, respectively). Patients were converted from sodium phenylbutyrate to RAVICTI®. The dosage of RAVICTI® was calculated to deliver the same amount of PBA as the sodium phenylbutyrate dosage the patients were taking when they entered the study.
# Patients received a mean RAVICTI® dose of 7.5 mL/m^2/day (8.2 g/m^2/day), with doses ranging from 3.3 to 12.3 mL/m^2/day (3.7 to 13.5 g/m^2/day). Patients were dosed three times a day (n=3) or four times a day (n=4).
# Venous ammonia levels were monitored on days 1, 3 and 10 in Study 4 and at week 1 in Study 4E. Two patients had day 1 ammonia values of 122 micromol/L and 111 micromol/L respectively, neither had associated signs and symptoms of hyperammonemia.
# During the extension period, venous ammonia levels were monitored monthly. Ammonia values across different laboratories were normalized (transformed) to a common normal pediatric range of 28 to 57 micromol/L for comparability. The mean venous ammonia values in pediatric patients at month 1, 3, 6, 9 and 12 were 58, 49, 34, 65, and 31 micromol/L during treatment with RAVICTI®, respectively.
# Three patients reported a total of 3 hyperammonemic crises, as defined in Study 6. Hyperammonemic crises were precipitated by gastroenteritis, vomiting, infection or no precipitating event (one patient). There were 4 patients who had one venous ammonia level that exceeded 100 micromol/L which was not associated with a hyperammonemic crisis.
# [5] = molecular target: T1, bile salt-stimulated lipase (Homo sapiens, UniProt P19835); settings: cited from earlier work
# T1 sequence (P19835 21-753): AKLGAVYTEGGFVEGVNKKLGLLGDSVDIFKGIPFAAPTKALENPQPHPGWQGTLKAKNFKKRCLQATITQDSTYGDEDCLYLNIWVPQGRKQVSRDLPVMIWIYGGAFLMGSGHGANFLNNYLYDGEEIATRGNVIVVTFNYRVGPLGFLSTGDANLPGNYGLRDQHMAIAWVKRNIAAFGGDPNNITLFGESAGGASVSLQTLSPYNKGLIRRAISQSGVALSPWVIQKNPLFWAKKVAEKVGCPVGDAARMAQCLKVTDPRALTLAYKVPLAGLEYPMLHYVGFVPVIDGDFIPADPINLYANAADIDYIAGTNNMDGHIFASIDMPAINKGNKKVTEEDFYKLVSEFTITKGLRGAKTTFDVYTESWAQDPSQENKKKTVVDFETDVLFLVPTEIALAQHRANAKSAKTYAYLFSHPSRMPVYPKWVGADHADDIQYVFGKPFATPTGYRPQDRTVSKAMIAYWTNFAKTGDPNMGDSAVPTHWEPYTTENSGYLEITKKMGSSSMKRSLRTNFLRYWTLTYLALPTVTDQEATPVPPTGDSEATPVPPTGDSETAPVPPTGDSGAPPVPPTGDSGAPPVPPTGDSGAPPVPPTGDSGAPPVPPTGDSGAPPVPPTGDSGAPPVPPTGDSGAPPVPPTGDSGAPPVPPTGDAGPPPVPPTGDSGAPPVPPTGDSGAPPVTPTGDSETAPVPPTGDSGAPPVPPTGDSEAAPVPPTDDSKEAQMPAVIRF
# [6] = test system: pancreatic lipase-related protein; settings: cited from earlier work
# [7] = pediatric UCD patients, TID with meals, arithmetic mean
# [8] = original scale, predefined non-inferiority upper margin 1.25
# [9] = Studies 4/4E, 5 extension period, normalized to 28 to 57 micromol/L
smiles,measurement,setting,value
"O=C(CCCc1ccccc1)OCC(COC(=O)CCCc1ccccc1)OC(=O)CCCc1ccccc1 [HPN-100, benzenebutanoic acid, 1′,1″-(1,2,3-propanetriyl) ester]",Plasma PAA CLss/F,[1]; [7],15082 mL/min
same,Plasma PBA CLss/F,[1]; [7],20545 mL/min
same,Plasma PAGN CLss/F,"[1]; pediatric UCD patients, TID with meals, arithmetic mean (CV %)",14237 mL/min
same,U-PAGN Ae0-12,"[1]; urinary PAGN excreted 0-12 h, arithmetic mean",5611719 µg
same,U-PAGN Ae12-24,"[1]; urinary PAGN excreted 12-24 h, arithmetic mean",6889318 µg
same,U-PAGN Ae,"[1]; urinary PAGN excreted, arithmetic mean",12501037 µg
same,"PAA exposure assessed as 24-hour area under the curve, RAVICTI vs NaPBA",[2],very similar
same,"mean ammonia exposure assessed at 24-hour area under the curve, RAVICTI vs NaPBA",[2],non-inferior
same,Mean blood ammonia at the 12-hour time point,"[3]; HPN-100 Day 10, NaPBA Day 1, highest value for both treatments",28.24 µmol/L
same,Mean blood ammonia at the 8-h time point,"[3]; HPN-100 Day 10, lowest value on HPN-100",23.20 µmol/L
same,"24-hour AUC for blood ammonia, HPN-100 vs NaPBA, upper 90% CI",[3]; [8],1.002
same,"24-hour AUC for blood ammonia, HPN-100 vs NaPBA, upper 95% CI",[3]; [8],1.055
same,"ammonia AUC, median difference between treatments (HPN-100 vs NaPBA)",[3]; pediatric UCD patients 29 days to <6 years,-37.84 µmol·h/L
same,"24-hour AUC for blood ammonia (primary efficacy endpoint), HPN-100 compared to NaPBA","[3]; pediatric UCD patients aged 29 days to <6 years, Day 1 (NaPBA) vs Day 10 (HPN-100), non-inferiority upper margin 1.25",non-inferior
same,"Blood ammonia levels postprandially at any given time point, HPN-100 (Day 10) vs NaPBA (Day 1)",[3]; postprandial,directionally lower
same,patients with one venous ammonia level exceeding 100 micromol/L not associated with a hyperammonemic crisis,"[4]; Studies 4/4E, 5",4 patients
same,total hyperammonemic crises,"[4]; Studies 4/4E, 5, reported by three patients",3
same,"mean venous ammonia, month 1",[4]; [9],58 µmol/L
same,"mean venous ammonia, month 3",[4]; [9],49 µmol/L
same,"mean venous ammonia, month 6",[4]; [9],34 µmol/L
same,"mean venous ammonia, month 9",[4]; [9],65 µmol/L
same,"mean venous ammonia, month 12",[4]; [9],31 µmol/L
same,day 1 ammonia values of two individual patients,"[4]; Studies 4/4E, no associated signs and symptoms of hyperammonemia, listed as RAVICTI®",122 µmol/L and 111 µmol/L
same,patients with venous ammonia levels less than 100 micromol/L at day 10/week 1,"[4]; Studies 4/4E, of the 7 patients",six
same,day 10 ammonia value of the remaining patient,"[4]; Study 4, asymptomatic",168 µmol/L
same,hydrolysis in vitro by bile salt-stimulated lipase,[5],hydrolyze
same,hydrolysis in vitro by pancreatic lipase-related protein,[6],hydrolyze
